Laboratory results: ChEMBL document CHEMBL1152560, “Substituted 2-arylbenzothiazoles as kinase inhibitors: hit-to-lead optimization” (Bioorg Med Chem, 2009)

Columns and labels:
[1] = target: T1, Muscle, skeletal receptor tyrosine-protein kinase (Homo sapiens) (UniProt O15146); experiment: Residual activity of MUSK at 0.1 uM by microplate scintillation counting
T1 sequence (whole entry): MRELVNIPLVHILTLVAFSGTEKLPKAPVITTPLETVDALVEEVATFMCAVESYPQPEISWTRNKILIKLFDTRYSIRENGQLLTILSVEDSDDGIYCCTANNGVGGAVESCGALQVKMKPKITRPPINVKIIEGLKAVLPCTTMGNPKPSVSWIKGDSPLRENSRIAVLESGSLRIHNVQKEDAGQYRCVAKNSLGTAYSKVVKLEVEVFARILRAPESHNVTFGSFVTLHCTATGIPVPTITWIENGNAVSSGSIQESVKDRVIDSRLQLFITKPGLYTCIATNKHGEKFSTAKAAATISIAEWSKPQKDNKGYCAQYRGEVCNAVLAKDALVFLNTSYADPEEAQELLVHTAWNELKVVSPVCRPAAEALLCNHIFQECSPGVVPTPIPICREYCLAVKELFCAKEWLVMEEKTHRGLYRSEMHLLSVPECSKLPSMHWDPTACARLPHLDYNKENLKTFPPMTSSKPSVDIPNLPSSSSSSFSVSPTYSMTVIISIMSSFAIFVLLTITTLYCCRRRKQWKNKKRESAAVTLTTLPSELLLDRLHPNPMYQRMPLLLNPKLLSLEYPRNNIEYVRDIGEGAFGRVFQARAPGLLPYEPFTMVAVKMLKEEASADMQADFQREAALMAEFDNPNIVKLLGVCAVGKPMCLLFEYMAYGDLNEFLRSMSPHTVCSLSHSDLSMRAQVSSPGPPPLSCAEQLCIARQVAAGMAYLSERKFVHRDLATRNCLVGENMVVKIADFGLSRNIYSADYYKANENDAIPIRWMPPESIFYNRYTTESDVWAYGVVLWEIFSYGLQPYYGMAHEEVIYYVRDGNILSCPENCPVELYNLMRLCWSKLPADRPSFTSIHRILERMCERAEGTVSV

[2] = target: T2, Protein kinase C zeta type (Homo sapiens) (UniProt Q05513); experiment: Residual activity of PKCzeta at 0.1 uM by microplate scintillation counting
T2 sequence (whole entry): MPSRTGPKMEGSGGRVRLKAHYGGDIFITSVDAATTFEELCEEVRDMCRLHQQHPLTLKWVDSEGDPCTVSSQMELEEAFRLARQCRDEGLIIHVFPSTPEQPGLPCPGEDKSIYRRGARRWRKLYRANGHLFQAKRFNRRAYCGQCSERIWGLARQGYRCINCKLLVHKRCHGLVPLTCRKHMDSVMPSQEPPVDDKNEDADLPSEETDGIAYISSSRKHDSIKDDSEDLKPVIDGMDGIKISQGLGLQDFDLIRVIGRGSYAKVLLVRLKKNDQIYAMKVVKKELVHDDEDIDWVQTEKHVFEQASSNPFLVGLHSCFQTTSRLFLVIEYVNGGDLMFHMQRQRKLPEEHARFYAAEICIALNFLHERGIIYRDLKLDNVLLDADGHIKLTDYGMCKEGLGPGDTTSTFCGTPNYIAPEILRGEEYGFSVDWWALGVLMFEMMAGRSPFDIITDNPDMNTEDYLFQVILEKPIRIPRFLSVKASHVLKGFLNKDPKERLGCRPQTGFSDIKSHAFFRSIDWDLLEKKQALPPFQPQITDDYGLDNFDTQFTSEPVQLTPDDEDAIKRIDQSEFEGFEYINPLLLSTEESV

[3] = target: Glycogen synthase kinase-3 beta (Homo sapiens) (UniProt P49841); experiment: Residual activity of GSK3-beta at 10 uM by microplate scintillation counting
[4] = target: T3, Serine/threonine-protein kinase Sgk2 (Homo sapiens) (UniProt Q9HBY8); experiment: Residual activity of SGK2 at 0.1 uM by microplate scintillation counting
T3 sequence (whole entry): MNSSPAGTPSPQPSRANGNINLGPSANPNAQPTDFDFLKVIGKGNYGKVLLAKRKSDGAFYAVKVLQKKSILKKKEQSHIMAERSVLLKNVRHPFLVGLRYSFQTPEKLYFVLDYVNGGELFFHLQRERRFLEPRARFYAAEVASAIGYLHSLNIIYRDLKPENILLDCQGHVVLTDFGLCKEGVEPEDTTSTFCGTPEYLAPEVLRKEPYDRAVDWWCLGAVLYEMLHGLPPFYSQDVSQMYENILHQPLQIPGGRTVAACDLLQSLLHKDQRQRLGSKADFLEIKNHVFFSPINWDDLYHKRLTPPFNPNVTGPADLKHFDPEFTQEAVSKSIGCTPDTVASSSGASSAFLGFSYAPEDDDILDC

[5] = target: T4, cGMP-dependent protein kinase 1 (Homo sapiens) (UniProt Q13976); experiment: Residual activity of PRKG1 at 0.1 uM by microplate scintillation counting
T4 sequence (whole entry): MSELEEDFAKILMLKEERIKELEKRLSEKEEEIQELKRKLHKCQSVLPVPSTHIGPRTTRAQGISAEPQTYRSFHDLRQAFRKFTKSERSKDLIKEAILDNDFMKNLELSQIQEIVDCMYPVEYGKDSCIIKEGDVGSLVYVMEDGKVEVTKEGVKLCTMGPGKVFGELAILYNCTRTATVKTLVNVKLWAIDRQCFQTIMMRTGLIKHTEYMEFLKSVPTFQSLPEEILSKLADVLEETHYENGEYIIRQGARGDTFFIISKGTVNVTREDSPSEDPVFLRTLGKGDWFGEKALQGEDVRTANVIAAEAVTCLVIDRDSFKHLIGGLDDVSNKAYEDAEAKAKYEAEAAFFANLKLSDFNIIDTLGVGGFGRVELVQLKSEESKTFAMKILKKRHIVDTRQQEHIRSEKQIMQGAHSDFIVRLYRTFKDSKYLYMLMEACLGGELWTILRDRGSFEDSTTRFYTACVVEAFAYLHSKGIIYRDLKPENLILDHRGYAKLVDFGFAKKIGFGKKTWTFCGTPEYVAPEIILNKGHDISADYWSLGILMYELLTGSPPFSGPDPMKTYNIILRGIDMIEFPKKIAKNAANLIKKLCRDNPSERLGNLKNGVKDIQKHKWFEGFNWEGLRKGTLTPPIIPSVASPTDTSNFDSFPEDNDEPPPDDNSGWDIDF

[6] = target: Cyclin-dependent kinase 2/cyclin E1 (Homo sapiens) (UniProt P24864+P24941); experiment: Residual activity of CDK2/Cyclin E at 0.1uM by microplate scintillation counting; assay type: protein-complex assay
[7] = target: Glycogen synthase kinase-3 alpha (Homo sapiens) (UniProt P49840); experiment: Residual activity of GSK3alpha at 0.1 uM by microplate scintillation counting
[8] = target: Mitogen-activated protein kinase 8 (Homo sapiens) (UniProt P45983); experiment: Residual activity of JNK1 at 1 uM by microplate scintillation counting
Mitogen-activated protein kinase 8 (Homo sapiens), sequence (P45983 whole entry): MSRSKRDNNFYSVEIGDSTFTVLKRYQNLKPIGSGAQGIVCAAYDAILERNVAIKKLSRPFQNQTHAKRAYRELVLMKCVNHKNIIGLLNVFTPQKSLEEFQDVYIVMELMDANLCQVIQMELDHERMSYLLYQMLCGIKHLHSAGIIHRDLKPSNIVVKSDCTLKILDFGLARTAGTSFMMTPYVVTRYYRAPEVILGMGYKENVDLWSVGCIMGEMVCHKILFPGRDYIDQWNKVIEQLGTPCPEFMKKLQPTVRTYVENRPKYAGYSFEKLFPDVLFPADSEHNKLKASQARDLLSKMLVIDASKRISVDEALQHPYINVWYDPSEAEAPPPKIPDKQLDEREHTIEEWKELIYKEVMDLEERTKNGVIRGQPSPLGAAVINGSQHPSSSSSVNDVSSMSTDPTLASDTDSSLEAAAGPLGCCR

Glycogen synthase kinase-3 alpha (Homo sapiens), sequence (P49840 2-483 limits assumed): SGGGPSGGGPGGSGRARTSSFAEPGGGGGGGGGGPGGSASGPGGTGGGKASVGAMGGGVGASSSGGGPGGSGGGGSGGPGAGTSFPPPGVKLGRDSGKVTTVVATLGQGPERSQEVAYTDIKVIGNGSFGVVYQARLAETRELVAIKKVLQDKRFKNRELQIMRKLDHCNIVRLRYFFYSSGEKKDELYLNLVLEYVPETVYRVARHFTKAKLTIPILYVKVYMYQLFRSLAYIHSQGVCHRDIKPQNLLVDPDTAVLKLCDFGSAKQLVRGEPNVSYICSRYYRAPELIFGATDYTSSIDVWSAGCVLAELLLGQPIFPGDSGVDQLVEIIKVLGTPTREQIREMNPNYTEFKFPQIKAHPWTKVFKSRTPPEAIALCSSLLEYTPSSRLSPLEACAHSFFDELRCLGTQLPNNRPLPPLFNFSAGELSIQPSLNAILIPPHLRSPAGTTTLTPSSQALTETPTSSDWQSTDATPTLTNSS
Glycogen synthase kinase-3 beta (Homo sapiens), sequence (P49841 whole entry, looked up): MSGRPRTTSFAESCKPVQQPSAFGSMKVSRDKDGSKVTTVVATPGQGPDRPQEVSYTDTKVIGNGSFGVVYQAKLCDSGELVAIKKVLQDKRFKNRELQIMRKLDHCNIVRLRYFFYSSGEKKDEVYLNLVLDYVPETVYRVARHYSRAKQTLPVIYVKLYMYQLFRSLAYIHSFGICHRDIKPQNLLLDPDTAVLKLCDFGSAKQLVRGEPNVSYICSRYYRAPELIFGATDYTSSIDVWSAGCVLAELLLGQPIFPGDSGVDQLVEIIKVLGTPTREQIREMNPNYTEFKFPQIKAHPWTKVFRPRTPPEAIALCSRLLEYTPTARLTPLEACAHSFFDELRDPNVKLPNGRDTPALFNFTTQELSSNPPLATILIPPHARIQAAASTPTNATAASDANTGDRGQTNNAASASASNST

residual activity [1] [%]	residual activity [2] [%]	residual activity [3] [%]	residual activity [4] [%]	residual activity [5] [%]	residual activity [6] [%]	residual activity [7] [%]	residual activity [8] [%]	Compound
97	107	104	94	90	93	95	142	COc1cc2c(Oc3ccc(-c4nc5ccccc5s4)cc3)ncnc2cc1OCCCN1CCCC1
95	85	123	93	97	86	103	142	COc1cc2c(Oc3ccc(-c4nc5ccccc5s4)cc3)ncnc2cc1OCCCN1CCN(C)CC1
96	97	98	95	84	92	104	154	COc1cc2c(Oc3ccc(-c4nc5ccccc5s4)cc3F)ncnc2cc1OCCCN1CCN(C)CC1
